Assay results from the NIST ThermoML archive (doi:10.1021/acs.jced.7b00702).

Settings: 100 kPa, Liquid; for viscosity: Falling or rolling sphere viscometry; for mass density: Vibrating tube method

CCn1cc[n+](C)c1.[Cl-].[Cl][Al]([Cl])[Cl] [1-ethyl-3-methyl-1H-imidazolium tetrachloroaluminate]
Settings | mass density [kg/m3] | viscosity [mPa·s]
293.15 K | 1299.32 | 20.62
303.15 K | 1291.13 | 15.69
313.15 K | 1283.05 | 12.31
323.15 K | 1275.03 | 9.952
333.15 K | 1267.1 | 8.214
343.15 K | 1259.22 | 6.927
353.15 K | 1251.41 | 5.945
